Experimental data from ChEMBL document CHEMBL4177585, “Discovery of berberine based derivatives as anti-influenza agent through blocking of neuraminidase” (Bioorg Med Chem, 2017).
Converted amounts (≈) assume the structure as drawn. The source made the active and inactive calls. The rule behind the calls is not given here.

Tested on: Influenza B virus
Assay: Antiviral activity against Influenza B virus (B/Maryland/1/59) infected in MDCK cells assessed as reduction in virus-induced cytopathogenicity incubated for 48 hrs by SRB assay
Format: functional, organism-based
Conditions: not given

Compound | IC50 [mg/L]
COc1cc(CN2CCN(c3ccc(F)cc3)CC2)c2cc3[n+](cc2c1O)CCc1cc2c(cc1-3)OCO2.[Cl-] | 3.12
CCOC(=O)C1=C[C@@H](OC(CC)CC)[C@H](NC(C)=O)[C@@H](N)C1 [OSELTAMIVIR] | 33.2 (≈ 106 µM)

Tested on: Influenza A virus
Assay: Antiviral activity against Influenza A virus (A/Puerto Rico/8/1934(H1N1)) infected in MDCK cells assessed as reduction in virus-induced cytopathogenicity treated 4 hrs after virus infection and measured after 48 hrs by SRB assay
Format: functional, organism-based
Conditions: not given

Compound | IC50 [mg/L]
COc1cc(CN2CCN(c3ccc(F)cc3)CC2)c2cc3[n+](cc2c1O)CCc1cc2c(cc1-3)OCO2.[Cl-] | 1.75
CCOC(=O)C1=C[C@@H](OC(CC)CC)[C@H](NC(C)=O)[C@@H](N)C1 [OSELTAMIVIR] | 7.39 (≈ 23.7 µM)

Tested on: Influenza A virus
Assay: Antiviral activity against Influenza A virus (A/Puerto Rico/8/1934(H1N1)) infected in MDCK cells assessed as reduction in virus-induced cytopathogenicity at 1 ug/ml pre-incubated for 1 hr with virus before virus infection of cells and measured after 48 hrs by SRB assay
Format: functional, organism-based
Conditions: not given

Compound | Activity
COc1cc(CN2CCN(c3ccc(F)cc3)CC2)c2cc3[n+](cc2c1O)CCc1cc2c(cc1-3)OCO2.[Cl-] | Active
CCOC(=O)C1=C[C@@H](OC(CC)CC)[C@H](NC(C)=O)[C@@H](N)C1 [OSELTAMIVIR] | Active

Tested on: Influenza A virus
Assay: Antiviral activity against Influenza A virus (A/Puerto Rico/8/1934(H1N1)) infected in MDCK cells assessed as reduction in virus-induced cytopathogenicity treated 1 hr before virus infection and measured after 48 hrs by SRB assay
Format: functional, organism-based
Conditions: not given

Compound | IC50 [mg/L]
COc1cc(CN2CCN(c3ccc(F)cc3)CC2)c2cc3[n+](cc2c1O)CCc1cc2c(cc1-3)OCO2.[Cl-] | 3.4
CCOC(=O)C1=C[C@@H](OC(CC)CC)[C@H](NC(C)=O)[C@@H](N)C1 [OSELTAMIVIR] | 69.8 (≈ 223 µM)

Tested on: Influenza A virus
Assay: Antiviral activity against Influenza A virus (A/Puerto Rico/8/1934(H1N1)) infected in MDCK cells assessed as reduction in virus-induced cytopathogenicity treated immediately after virus infection and measured after 48 hrs by SRB assay
Format: functional, organism-based
Conditions: not given

Compound | IC50 [mg/L]
COc1cc(CN2CCN(c3ccc(F)cc3)CC2)c2cc3[n+](cc2c1O)CCc1cc2c(cc1-3)OCO2.[Cl-] | 0.89
CCOC(=O)C1=C[C@@H](OC(CC)CC)[C@H](NC(C)=O)[C@@H](N)C1 [OSELTAMIVIR] | 4.12 (≈ 13.2 µM)

Tested on: Influenza B virus
Assay: Antiviral activity against Influenza B virus (B/Lee/40) infected in MDCK cells assessed as reduction in virus-induced cytopathogenicity incubated for 48 hrs by SRB assay
Format: functional, organism-based
Conditions: B/Lee/1940, MDCK

Compound | IC50 [mg/L]
COc1cc(CN2CCN(c3ccc(F)cc3)CC2)c2cc3[n+](cc2c1O)CCc1cc2c(cc1-3)OCO2.[Cl-] | 4.12
CCOC(=O)C1=C[C@@H](OC(CC)CC)[C@H](NC(C)=O)[C@@H](N)C1 [OSELTAMIVIR] | 41.9 (≈ 134 µM)

Tested on: Influenza A virus
Assay: Antiviral activity against Influenza A virus (A/Puerto Rico/8/1934(H1N1)) infected in MDCK cells assessed as reduction in virus-induced cytopathogenicity treated 1 hr after virus infection and measured after 48 hrs by SRB assay
Format: functional, organism-based
Conditions: not given

Compound | IC50 [mg/L]
COc1cc(CN2CCN(c3ccc(F)cc3)CC2)c2cc3[n+](cc2c1O)CCc1cc2c(cc1-3)OCO2.[Cl-] | 1.22
CCOC(=O)C1=C[C@@H](OC(CC)CC)[C@H](NC(C)=O)[C@@H](N)C1 [OSELTAMIVIR] | 6.13 (≈ 19.6 µM)

Tested on: Influenza A virus
Assay: Antiviral activity against Influenza A virus (A/Puerto Rico/8/1934(H1N1)) infected in MDCK cells assessed as reduction in virus-induced cytopathogenicity at 1 ug/ml treated before virus infection and measured after 48 hrs by SRB assay relative to untreated control
Format: functional
Conditions: not given

Compound | inhibition at 1 µg/mL [%]
COc1cc(CN2CCN(c3ccc(F)cc3)CC2)c2cc3[n+](cc2c1O)CCc1cc2c(cc1-3)OCO2.[Cl-] | 48.3
CCOC(=O)C1=C[C@@H](OC(CC)CC)[C@H](NC(C)=O)[C@@H](N)C1 [OSELTAMIVIR] | 25.7

Target: Neuraminidase (Influenza A virus (A/Puerto Rico/8/1934(H1N1))) (UniProt P03468)
Assay: Inhibition of neuraminidase in influenza A virus (A/Puerto Rico/8/1934(H1N1)) assessed as remaining enzyme activity at 1 ug/ml pre-incubated for 30 mins before NA-Star substrate addition for 30 mins by luminescence based assay
Conditions: not given

Neuraminidase (Influenza A virus (A/Puerto Rico/8/1934(H1N1))), sequence (P03468 whole entry): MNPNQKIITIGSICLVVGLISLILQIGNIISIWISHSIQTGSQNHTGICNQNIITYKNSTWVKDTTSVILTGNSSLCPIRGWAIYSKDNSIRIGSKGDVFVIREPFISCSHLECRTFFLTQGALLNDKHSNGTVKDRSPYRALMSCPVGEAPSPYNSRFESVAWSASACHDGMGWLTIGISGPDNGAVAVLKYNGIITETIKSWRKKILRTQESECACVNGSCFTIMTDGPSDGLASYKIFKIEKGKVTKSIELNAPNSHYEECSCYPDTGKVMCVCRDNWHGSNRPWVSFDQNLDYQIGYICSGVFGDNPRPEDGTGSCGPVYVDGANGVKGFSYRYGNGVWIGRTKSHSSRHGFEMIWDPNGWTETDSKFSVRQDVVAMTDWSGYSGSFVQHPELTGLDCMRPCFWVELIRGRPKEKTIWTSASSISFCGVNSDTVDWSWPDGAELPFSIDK

Compound | Activity [%]
COc1cc(CN2CCN(c3ccc(F)cc3)CC2)c2cc3[n+](cc2c1O)CCc1cc2c(cc1-3)OCO2.[Cl-] | 23.4
CCOC(=O)C1=C[C@@H](OC(CC)CC)[C@H](NC(C)=O)[C@@H](N)C1 [OSELTAMIVIR] | 32.9

Tested on: Influenza A virus
Assay: Antiviral activity against Influenza A virus (A/Victoria/3/1975(H3N2)) infected in MDCK cells assessed as reduction in virus-induced cytopathogenicity incubated for 48 hrs by SRB assay
Format: functional, organism-based
Conditions: not given

Compound | IC50 [mg/L]
COc1cc(CN2CCN(c3ccc(F)cc3)CC2)c2cc3[n+](cc2c1O)CCc1cc2c(cc1-3)OCO2.[Cl-] | 1.15
CCOC(=O)C1=C[C@@H](OC(CC)CC)[C@H](NC(C)=O)[C@@H](N)C1 [OSELTAMIVIR] | 12.1 (≈ 38.9 µM)

Tested on: Influenza A virus
Assay: Antiviral activity against Influenza A virus (A/Puerto Rico/8/1934(H1N1)) infected in MDCK cells assessed as reduction in virus-induced cytopathogenicity treated 12 hrs after virus infection and measured after 48 hrs by SRB assay
Format: functional, organism-based
Conditions: not given

Compound | IC50 [mg/L]
COc1cc(CN2CCN(c3ccc(F)cc3)CC2)c2cc3[n+](cc2c1O)CCc1cc2c(cc1-3)OCO2.[Cl-] | 23.2
CCOC(=O)C1=C[C@@H](OC(CC)CC)[C@H](NC(C)=O)[C@@H](N)C1 [OSELTAMIVIR] | 84.3 (≈ 270 µM)

Target: Neuraminidase (Influenza A virus (A/Puerto Rico/8/1934(H1N1))) (UniProt P03468)
Assay: Inhibition of neuraminidase in influenza A virus (A/Puerto Rico/8/1934(H1N1)) assessed as remaining enzyme activity at 0.1 ug/ml pre-incubated for 30 mins before NA-Star substrate addition for 30 mins by luminescence based assay
Conditions: not given

Compound | Activity [%]
COc1cc(CN2CCN(c3ccc(F)cc3)CC2)c2cc3[n+](cc2c1O)CCc1cc2c(cc1-3)OCO2.[Cl-] | 43.1
CCOC(=O)C1=C[C@@H](OC(CC)CC)[C@H](NC(C)=O)[C@@H](N)C1 [OSELTAMIVIR] | 41.9

Tested on: Influenza A virus
Assay: Antiviral activity against Influenza A virus (A/Puerto Rico/8/1934(H1N1)) infected in MDCK cells assessed as reduction in virus-induced cytopathogenicity incubated for 48 hrs by SRB assay
Format: functional, organism-based
Conditions: not given

Compound | IC50 [mg/L]
COc1cc(CN2CCN(c3ccc(F)cc3)CC2)c2cc3[n+](cc2c1O)CCc1cc2c(cc1-3)OCO2.[Cl-] | 0.87
CCOC(=O)C1=C[C@@H](OC(CC)CC)[C@H](NC(C)=O)[C@@H](N)C1 [OSELTAMIVIR] | 3.19 (≈ 10.2 µM)

Tested on: not listed separately
Assay: Cytotoxicity against MDCK cells incubated for 48 hrs assessed as reduction in cell viability by SRB assay
Format: cell-based, Canis lupus familiaris
Conditions: dog

Compound | CC50 at 48 h [mg/L]
COc1cc(CN2CCN(c3ccc(F)cc3)CC2)c2cc3[n+](cc2c1O)CCc1cc2c(cc1-3)OCO2.[Cl-] | 72.6

Tested on: Influenza A virus
Assay: Antiviral activity against Influenza A virus (A/Puerto Rico/8/1934(H1N1)) infected in MDCK cells assessed as reduction in virus-induced cytopathogenicity treated 7 hrs after virus infection and measured after 48 hrs by SRB assay
Format: functional, organism-based
Conditions: not given

Compound | IC50 [mg/L]
COc1cc(CN2CCN(c3ccc(F)cc3)CC2)c2cc3[n+](cc2c1O)CCc1cc2c(cc1-3)OCO2.[Cl-] | 9.38
CCOC(=O)C1=C[C@@H](OC(CC)CC)[C@H](NC(C)=O)[C@@H](N)C1 [OSELTAMIVIR] | 12.8 (≈ 40.8 µM)

Target: Neuraminidase (Influenza A virus (A/Puerto Rico/8/1934(H1N1)), UniProt P03468)
Assay: Inhibition of neuraminidase in influenza A virus (A/Puerto Rico/8/1934(H1N1)) pre-incubated for 30 mins before NA-Star substrate addition for 30 mins by luminescence based assay
Conditions: not given

Neuraminidase (Influenza A virus (A/Puerto Rico/8/1934(H1N1)), UniProt P03468), sequence (P03468 whole entry): as above

Compound | Ki [µM]
COc1cc(CN2CCN(c3ccc(F)cc3)CC2)c2cc3[n+](cc2c1O)CCc1cc2c(cc1-3)OCO2.[Cl-] | 0.48

Tested on: Influenza A virus
Assay: Antiviral activity against Influenza A virus (A/Puerto Rico/8/1934(H1N1)) infected in MDCK cells assessed as reduction in virus-induced cytopathogenicity treated 2 hrs before virus infection and measured after 48 hrs by SRB assay
Format: functional, organism-based
Conditions: not given

Compound | IC50 [mg/L]
COc1cc(CN2CCN(c3ccc(F)cc3)CC2)c2cc3[n+](cc2c1O)CCc1cc2c(cc1-3)OCO2.[Cl-] | 21.3
CCOC(=O)C1=C[C@@H](OC(CC)CC)[C@H](NC(C)=O)[C@@H](N)C1 [OSELTAMIVIR] | 71.5 (≈ 229 µM)

Tested on: Influenza A virus
Assay: Antiviral activity against Influenza A virus (A/Puerto Rico/8/1934(H1N1)) infected in MDCK cells assessed as reduction in virus-induced cytopathogenicity treated 6 hrs before virus infection and measured after 48 hrs by SRB assay
Format: functional, organism-based
Conditions: not given

Compound | IC50 [mg/L]
COc1cc(CN2CCN(c3ccc(F)cc3)CC2)c2cc3[n+](cc2c1O)CCc1cc2c(cc1-3)OCO2.[Cl-] | 52.4
CCOC(=O)C1=C[C@@H](OC(CC)CC)[C@H](NC(C)=O)[C@@H](N)C1 [OSELTAMIVIR] | > 100

Tested on: Influenza A virus
Assay: Antiviral activity against Influenza A virus (A/Puerto Rico/8/1934(H1N1)) infected in MDCK cells assessed as reduction in virus-induced cytopathogenicity treated 24 hrs after virus infection and measured after 48 hrs by SRB assay
Format: functional, organism-based
Conditions: not given

Compound | IC50 [mg/L]
COc1cc(CN2CCN(c3ccc(F)cc3)CC2)c2cc3[n+](cc2c1O)CCc1cc2c(cc1-3)OCO2.[Cl-] | > 100
CCOC(=O)C1=C[C@@H](OC(CC)CC)[C@H](NC(C)=O)[C@@H](N)C1 [OSELTAMIVIR] | > 100

Tested on: Influenza A virus
Assay: Antiviral activity against Influenza A virus (A/Puerto Rico/8/1934(H1N1)) infected in MDCK cells assessed as reduction in virus-induced cytopathogenicity treated 2 hrs after virus infection and measured after 48 hrs by SRB assay
Format: functional, organism-based
Conditions: not given

Compound | IC50 [mg/L]
COc1cc(CN2CCN(c3ccc(F)cc3)CC2)c2cc3[n+](cc2c1O)CCc1cc2c(cc1-3)OCO2.[Cl-] | 1.19
CCOC(=O)C1=C[C@@H](OC(CC)CC)[C@H](NC(C)=O)[C@@H](N)C1 [OSELTAMIVIR] | 6.05 (≈ 19.4 µM)

Target: Neuraminidase (Influenza A virus (A/Puerto Rico/8/1934(H1N1))) (UniProt P03468)
Assay: Inhibition of neuraminidase in influenza A virus (A/Puerto Rico/8/1934(H1N1)) assessed as remaining enzyme activity at 10 ug/ml pre-incubated for 30 mins before NA-Star substrate addition for 30 mins by luminescence based assay
Conditions: not given

Compound | Activity [%]
COc1cc(CN2CCN(c3ccc(F)cc3)CC2)c2cc3[n+](cc2c1O)CCc1cc2c(cc1-3)OCO2.[Cl-] | 16.6
CCOC(=O)C1=C[C@@H](OC(CC)CC)[C@H](NC(C)=O)[C@@H](N)C1 [OSELTAMIVIR] | 22.6
